Results: patent publication US4775680A, “Cyclohept[b]indolealkanoic acids, pharmaceutical compositions and use” (Merck & Co., Inc., priority 1987, dated 1988)

Key:
[1] = test system: human platelets; assay: Inhibition of U44069-induced threshold aggregation of human platelets; assay type: cell-based; conditions: compound A versus compound 1; compound B versus compound 3
Method: INHIBITION OF INDUCED THRESHOLD AGGREGATION OF HUMAN PLATELETS
Human platelet rich plasma (PRP) is prepared from venous blood of male volunteers who have taken no medication for ten days prior to test. Blood is transferred into plastic centrifuge tubes containing 3.8% Trisodium Citrate in 0.9% NaCl (in a ratio of blood to anticoagulant of 9:1), mixed by gentle inversion, and centrifuged at room temperature for ten minutes at 116 g. The supernatant (PRP) is transferred into plastic tubes. Platelet poor plasma (PPP) is obtained by centrifuging the residual blood cells at 4000 g for ten minutes. PRP is left to stand at least one half hour prior to testing.
Platelet Aggregation is measured using a Payton Aggregometer and Recorder. […]
The threshold (approximately 20-30% of maximum) aggregation concentration of the agonist to be used is first determined in the presence of the drug vehicle (control). […]
The height of the aggegation response (measured in divisions of the recorder paper, 1 division=2.5 mm) in the presence of the drug is recorded, and calculated as percent inhibition of the mean height of the control threshold responses. […]

[2] = target: T1, guinea pig tracheal chain (Cavia porcellus, UniProt A0A286Y4I8); assay: Estimation of pA2 values in guinea pig tracheal chain (agonist U-44069); assay type: cell-based, guinea pig (male albino Hartley strain); conditions: for Kb: logarithmic scale, agonist U-44069, guinea pig tracheal chain
T1 construct: The trachea was removed, freed of extraneous tissue and sectioned into rings; from tissue; host or cells: guinea pig trachea (male albino Hartley strain)
T1 sequence (A0A286Y4I8 1-347): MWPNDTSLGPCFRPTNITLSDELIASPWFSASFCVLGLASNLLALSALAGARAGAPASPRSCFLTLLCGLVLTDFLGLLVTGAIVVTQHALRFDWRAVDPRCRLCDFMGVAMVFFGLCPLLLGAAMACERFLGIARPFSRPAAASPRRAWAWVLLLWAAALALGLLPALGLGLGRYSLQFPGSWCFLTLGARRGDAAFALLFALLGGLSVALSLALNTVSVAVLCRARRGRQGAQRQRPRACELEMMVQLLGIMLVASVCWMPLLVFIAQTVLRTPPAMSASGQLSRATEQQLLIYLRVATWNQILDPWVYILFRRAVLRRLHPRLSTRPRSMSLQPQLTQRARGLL
Text: ESTIMATION OF pA2 VALUES IN GUINEA PIG TRACHEAL CHAIN
Male albino Hartley strain guinea pigs (300-350 gm) were sacrificed by a blow to the head and exsanguinated. The trachea was removed, freed of extraneous tissue and sectioned into rings of 1-2 mm thickness. Five rings were tied together in series, ensuring that the tracheal muscle lay in the same vertical plane, and the cartilage of each ring then separated at a point directly opposite the muscle. The chains were suspended under 1 gm resting tension in modified Krebs solution (NaCl, 6.87; NaHCO3, 2.1; dextrose, 2.1; KCl, 0.32; CaCl2, 0.28; MgSO4, 7H2 O, 0.11; KH2 PO4, 0.16; gm/L: equilibrated with 5% CO2 in O2 for 1 hour) containing indomethacin (1.4×10-^5 M) to suppress endogenous protaglandin synthesis, Organ bath temperature was maintained at 37° C. and 5% CO2 in O2 diffused continously. Isometric tension changes were recorded from a Gould-Statham (UTC 2) force displacement transducer connected to a Beckman Type R Dynograph. For assay purposes initial maximal contractions were elicited with a high concentration of the contractile agonist [U-44069, 9.11-dideoxy-9a,11a-epoxymethano PGF2a ] and the tissue subsequently washed at intervals until tension returned to baseline. Agonist dose response curves were obtained using a cumulative-dose schedule (4-8 doses) and the preparations then washed at regular intervals until baseline tension was recorded. After an appropriate interval (1-1.5 hrs) agonist dose response curves were repeated in the presence of antagonist drug concentrations. […] EC50 values were obtained by regression analysis and used to calculate `apparent` and Schild Plot pA2 values by the method of Tallarida and Murray 1981.
In Table 6 below are presented data indicating the prostanoid antagonist activities of compounds of the present invention indicated in Table 1. It is to be noted that pA2 values are on a logarithmic scale, so that, for instance, a difference between two pA2 values of 1 represents a difference in potency by a factor of 10.

Row | Kb [2] [nM] | SMILES | further results
1 |  | COc1ccc2c(c1)c1c(n2Cc2ccc(Cl)cc2)CC(CC(=O)O)CC1 (stereo not drawn) [Compound A, reference compound] | potency as an inhibitor of platelet aggregation relative to the seven-membered ring analog [1]: seventy times less potent than compound 1; factor corresponding to the pA2 difference from compound 1 ([2]; compound A versus compound 1): 15; pA2 lower than that of compound 1 ([2]; compound A versus compound 1): 1.7 log units
2 | 1.35 | O=C(O)CC1CCCCc2c1n(Cc1ccc(Cl)cc1)c1ccc(F)cc21 (stereo not drawn) | 
3 | 3.16 | O=C(O)CC1CCCc2c(n(Cc3ccc(Cl)cc3)c3ccc(F)cc23)C1 (stereo not drawn) | 
4 | 8.32 | CS(=O)(=O)c1ccc(Cn2c3c(c4cc(F)cc(F)c42)CCCC(CC(=O)O)C3)cc1 (stereo not drawn) | 
5 |  | COc1ccc2c(c1)c1c(n2Cc2ccc(Cl)cc2)CC(C(=O)O)CC1 (stereo not drawn) [Compound B, reference compound] | potency as an inhibitor of platelet aggregation relative to the seven-membered ring analog [1]: at least four times less potent than the latter; pA2 compared with compound 3, in words ([2]; compound B versus compound 3): slightly lower pA2 value
6 | 129 | O=C(O)C1CCCc2c(n(Cc3ccc(Cl)cc3)c3ccc(F)cc23)C1 (stereo not drawn) | 
7 | 158 | COc1ccc2c(c1)c1c(n2Cc2ccc(Cl)cc2)CC(CC(=O)O)CC1 (stereo not drawn) [drawing 26] | 
8 | 42.7 | O=C(O)CC1CCCCc2c1c1cc(F)ccc1n2Cc1ccc(Cl)cc1 (stereo not drawn) | 
9 | 158 | COc1ccc2c(c1)c1c(n2Cc2ccc(Cl)cc2)CC(C(=O)O)CC1 (stereo not drawn) [drawing 27] | 
